Results reported in paper PMC10174618, “Monoterpenoid aryl hydrocarbon receptor allosteric antagonists protect against ultraviolet skin damage in female mice” (Nature Communications, 2023).

Tests used:
Experiment in all cases: biochemical
Design in all cases: KINOMEscan scanMAX active site-directed competition binding assay, percent of control, 468 kinases
Conditions in all cases: competition binding, percent of control
[1] = target: TRPM6 (Homo sapiens, UniProt Q9BX84)
Outline: (§1)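 KINOMEscan active site-directed competition binding assay against 468 human kinases with 100 μM S-carvone. Binding expressed as % of control, with 35% of control as the inhibition threshold.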

[2] = target: SGK3 (Homo sapiens, UniProt Q96BR1)
SGK3, sequence (Q96BR1 whole entry): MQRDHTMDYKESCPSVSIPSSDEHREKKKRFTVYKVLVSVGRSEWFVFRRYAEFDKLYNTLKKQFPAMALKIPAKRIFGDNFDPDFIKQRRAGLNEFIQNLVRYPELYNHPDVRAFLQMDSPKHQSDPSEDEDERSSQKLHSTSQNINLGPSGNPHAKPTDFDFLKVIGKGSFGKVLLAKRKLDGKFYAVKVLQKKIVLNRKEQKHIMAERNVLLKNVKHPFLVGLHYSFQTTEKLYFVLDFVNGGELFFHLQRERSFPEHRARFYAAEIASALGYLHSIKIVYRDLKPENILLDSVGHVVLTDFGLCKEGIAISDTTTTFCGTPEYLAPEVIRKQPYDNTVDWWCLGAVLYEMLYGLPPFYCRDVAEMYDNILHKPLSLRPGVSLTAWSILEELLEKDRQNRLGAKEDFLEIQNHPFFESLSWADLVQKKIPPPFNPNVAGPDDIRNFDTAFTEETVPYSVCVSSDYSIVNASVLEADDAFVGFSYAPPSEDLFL
Outline: as §1

[3] = target: MYLK2 (Homo sapiens, UniProt Q9H1R3)
MYLK2, sequence (Q9H1R3 whole entry): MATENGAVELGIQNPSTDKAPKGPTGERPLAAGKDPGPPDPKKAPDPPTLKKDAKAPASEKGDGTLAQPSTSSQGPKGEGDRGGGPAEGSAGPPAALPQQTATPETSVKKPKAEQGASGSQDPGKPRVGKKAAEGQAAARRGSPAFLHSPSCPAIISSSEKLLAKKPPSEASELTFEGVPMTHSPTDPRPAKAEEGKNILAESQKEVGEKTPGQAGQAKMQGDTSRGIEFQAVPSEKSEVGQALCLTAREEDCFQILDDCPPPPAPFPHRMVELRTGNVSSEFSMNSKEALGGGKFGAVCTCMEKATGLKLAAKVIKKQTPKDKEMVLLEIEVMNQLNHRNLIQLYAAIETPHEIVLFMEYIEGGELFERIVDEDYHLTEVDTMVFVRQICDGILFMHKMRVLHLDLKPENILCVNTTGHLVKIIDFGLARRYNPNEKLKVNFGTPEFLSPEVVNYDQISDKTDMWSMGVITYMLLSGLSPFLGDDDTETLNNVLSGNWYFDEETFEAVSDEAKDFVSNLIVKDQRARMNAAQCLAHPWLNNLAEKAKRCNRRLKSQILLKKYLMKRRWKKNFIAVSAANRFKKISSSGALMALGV
Outline: as §1

[4] = target: BMPR2 (Homo sapiens, UniProt Q13873)
Outline: as §1

[5] = target: PIK3CA(M1043I) (Homo sapiens, UniProt P42336, M1043I)
Outline: as §1

[6] = target: T1, ABL1(H396P)-phosphorylated (Homo sapiens, UniProt P00519, H396P)
T1 construct: phosphorylated
Outline: as §1

[7] = target: EPHB6 (Homo sapiens, UniProt O15197)
Outline: as §1

[8] = target: FLT3(N841I) (Homo sapiens, UniProt P36888, N841I)
Outline: as §1

[9] = target: T2, BIKE (Homo sapiens, UniProt Q9NSY1)
T2 construct: gene BMP2K
T2 sequence (Q9NSY1 whole entry): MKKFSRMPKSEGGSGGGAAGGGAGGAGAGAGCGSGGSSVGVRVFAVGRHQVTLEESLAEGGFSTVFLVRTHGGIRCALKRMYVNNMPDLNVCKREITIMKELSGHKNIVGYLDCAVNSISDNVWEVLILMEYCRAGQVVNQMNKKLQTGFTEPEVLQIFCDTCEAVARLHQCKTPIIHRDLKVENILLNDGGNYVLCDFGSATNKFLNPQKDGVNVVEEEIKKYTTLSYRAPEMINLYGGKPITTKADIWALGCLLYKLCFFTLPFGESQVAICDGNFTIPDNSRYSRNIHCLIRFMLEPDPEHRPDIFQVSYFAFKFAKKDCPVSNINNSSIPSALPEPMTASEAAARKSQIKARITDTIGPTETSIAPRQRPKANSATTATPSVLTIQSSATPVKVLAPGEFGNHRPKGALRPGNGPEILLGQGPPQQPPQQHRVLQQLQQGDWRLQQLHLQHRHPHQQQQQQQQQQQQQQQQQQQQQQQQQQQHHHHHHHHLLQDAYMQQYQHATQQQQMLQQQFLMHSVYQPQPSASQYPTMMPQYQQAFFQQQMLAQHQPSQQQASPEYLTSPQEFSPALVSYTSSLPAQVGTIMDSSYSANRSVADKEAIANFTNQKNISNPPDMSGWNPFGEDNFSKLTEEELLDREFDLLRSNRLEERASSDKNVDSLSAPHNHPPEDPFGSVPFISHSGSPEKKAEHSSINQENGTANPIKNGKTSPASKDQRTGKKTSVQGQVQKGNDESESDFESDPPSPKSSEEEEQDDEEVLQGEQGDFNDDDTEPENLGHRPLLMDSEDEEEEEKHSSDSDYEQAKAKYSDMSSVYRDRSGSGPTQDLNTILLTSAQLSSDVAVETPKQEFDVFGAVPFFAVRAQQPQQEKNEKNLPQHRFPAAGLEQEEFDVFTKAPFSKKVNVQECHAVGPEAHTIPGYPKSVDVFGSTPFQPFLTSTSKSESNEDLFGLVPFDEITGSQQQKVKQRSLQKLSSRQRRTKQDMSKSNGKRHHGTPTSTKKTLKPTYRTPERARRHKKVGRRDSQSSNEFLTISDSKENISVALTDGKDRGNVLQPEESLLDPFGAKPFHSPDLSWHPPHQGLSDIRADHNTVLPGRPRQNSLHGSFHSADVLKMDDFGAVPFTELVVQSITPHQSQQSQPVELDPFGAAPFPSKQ
Outline: as §1

[10] = target: CSK (Homo sapiens, UniProt P41240)
Outline: as §1

[11] = target: PIM2 (Homo sapiens, UniProt Q9P1W9)
PIM2, sequence (Q9P1W9 whole entry): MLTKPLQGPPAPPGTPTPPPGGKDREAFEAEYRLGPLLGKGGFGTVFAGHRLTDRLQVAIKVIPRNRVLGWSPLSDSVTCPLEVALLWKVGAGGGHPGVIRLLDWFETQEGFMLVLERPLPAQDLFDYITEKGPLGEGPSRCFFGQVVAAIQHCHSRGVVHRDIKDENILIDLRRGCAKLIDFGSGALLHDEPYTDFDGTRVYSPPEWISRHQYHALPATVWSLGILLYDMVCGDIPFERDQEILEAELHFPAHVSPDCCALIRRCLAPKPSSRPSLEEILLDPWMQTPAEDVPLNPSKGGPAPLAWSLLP
Outline: as §1

[12] = target: T3, JNK3 (Homo sapiens, UniProt P53779)
T3 construct: gene MAPK10
Outline: as §1

[13] = target: MERTK (Homo sapiens, UniProt Q12866)
Outline: as §1

[14] = target: T4, YSK1 (Homo sapiens, UniProt O00506)
T4 construct: gene STK25
Outline: as §1

[15] = target: PIK3C2G (Homo sapiens, UniProt O75747)
Outline: as §1

[16] = target: FLT1 (Homo sapiens, UniProt P17948)
Outline: as §1

[17] = target: TIE1 (Homo sapiens, UniProt P35590)
Outline: as §1

[18] = target: T5, MST1 (Homo sapiens, UniProt Q13043)
T5 construct: gene STK4
T5 sequence (Q13043 whole entry): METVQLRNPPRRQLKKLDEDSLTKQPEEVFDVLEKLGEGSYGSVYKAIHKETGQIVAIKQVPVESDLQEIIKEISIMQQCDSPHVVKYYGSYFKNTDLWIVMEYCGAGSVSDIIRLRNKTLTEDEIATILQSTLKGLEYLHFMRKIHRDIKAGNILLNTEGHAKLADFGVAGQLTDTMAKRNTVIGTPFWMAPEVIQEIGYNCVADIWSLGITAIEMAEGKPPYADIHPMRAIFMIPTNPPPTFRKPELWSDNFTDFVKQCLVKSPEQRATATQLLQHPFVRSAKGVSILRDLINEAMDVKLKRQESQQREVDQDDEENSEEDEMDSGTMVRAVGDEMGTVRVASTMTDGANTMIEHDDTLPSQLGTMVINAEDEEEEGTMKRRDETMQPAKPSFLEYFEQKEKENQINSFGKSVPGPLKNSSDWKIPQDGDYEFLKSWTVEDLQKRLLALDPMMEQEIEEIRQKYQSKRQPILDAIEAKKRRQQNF
Outline: as §1

[19] = target: DDR1 (Homo sapiens, UniProt Q08345)
Outline: as §1

[20] = target: CSNK1G3 (Homo sapiens, UniProt Q9Y6M4)
Outline: as §1

[21] = target: WNK3 (Homo sapiens, UniProt Q9BYP7)
WNK3, sequence (Q9BYP7 whole entry): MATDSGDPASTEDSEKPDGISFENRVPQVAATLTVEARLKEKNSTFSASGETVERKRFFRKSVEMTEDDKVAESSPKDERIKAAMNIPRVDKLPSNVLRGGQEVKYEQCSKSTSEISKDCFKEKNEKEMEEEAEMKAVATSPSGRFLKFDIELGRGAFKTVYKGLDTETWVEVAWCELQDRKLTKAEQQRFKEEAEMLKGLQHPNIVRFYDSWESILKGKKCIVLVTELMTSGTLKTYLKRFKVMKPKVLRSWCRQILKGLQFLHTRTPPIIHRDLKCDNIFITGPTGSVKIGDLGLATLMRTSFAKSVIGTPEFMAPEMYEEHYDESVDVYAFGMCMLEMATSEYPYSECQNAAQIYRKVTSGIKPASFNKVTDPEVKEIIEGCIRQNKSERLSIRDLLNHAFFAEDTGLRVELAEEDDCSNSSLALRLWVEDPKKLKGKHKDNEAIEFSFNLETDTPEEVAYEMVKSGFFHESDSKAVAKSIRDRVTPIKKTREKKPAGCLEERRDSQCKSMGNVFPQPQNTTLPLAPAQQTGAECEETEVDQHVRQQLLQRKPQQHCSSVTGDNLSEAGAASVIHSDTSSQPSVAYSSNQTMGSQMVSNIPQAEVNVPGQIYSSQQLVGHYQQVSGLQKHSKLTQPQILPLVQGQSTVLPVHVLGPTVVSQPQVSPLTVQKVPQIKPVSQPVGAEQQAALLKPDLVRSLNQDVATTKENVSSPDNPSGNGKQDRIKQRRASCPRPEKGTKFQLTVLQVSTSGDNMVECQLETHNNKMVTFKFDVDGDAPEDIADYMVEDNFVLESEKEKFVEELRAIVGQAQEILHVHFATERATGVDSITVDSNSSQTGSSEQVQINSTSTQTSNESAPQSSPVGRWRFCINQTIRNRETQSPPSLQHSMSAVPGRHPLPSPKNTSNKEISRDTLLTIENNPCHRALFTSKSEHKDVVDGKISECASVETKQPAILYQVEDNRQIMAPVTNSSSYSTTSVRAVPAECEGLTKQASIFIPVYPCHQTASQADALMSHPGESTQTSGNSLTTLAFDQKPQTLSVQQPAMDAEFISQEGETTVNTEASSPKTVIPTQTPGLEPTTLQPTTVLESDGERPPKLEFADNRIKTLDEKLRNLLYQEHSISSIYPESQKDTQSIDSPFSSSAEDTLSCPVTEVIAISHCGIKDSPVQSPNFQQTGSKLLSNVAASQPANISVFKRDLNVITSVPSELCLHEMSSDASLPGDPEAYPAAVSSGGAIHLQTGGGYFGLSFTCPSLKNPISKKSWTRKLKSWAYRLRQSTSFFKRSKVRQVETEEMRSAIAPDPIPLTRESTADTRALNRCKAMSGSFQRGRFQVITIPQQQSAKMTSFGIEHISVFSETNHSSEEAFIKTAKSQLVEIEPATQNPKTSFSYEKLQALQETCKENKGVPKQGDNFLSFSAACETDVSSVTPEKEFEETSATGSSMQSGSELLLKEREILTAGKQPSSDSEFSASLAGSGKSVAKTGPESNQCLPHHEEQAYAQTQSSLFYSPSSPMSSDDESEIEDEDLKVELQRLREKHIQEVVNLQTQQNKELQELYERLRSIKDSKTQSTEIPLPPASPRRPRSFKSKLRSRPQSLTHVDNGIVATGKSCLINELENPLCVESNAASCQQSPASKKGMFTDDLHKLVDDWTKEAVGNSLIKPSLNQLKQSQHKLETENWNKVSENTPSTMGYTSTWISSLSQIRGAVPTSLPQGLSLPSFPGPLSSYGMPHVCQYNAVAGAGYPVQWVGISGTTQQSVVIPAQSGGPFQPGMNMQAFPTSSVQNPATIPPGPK
Outline: as §1

[22] = target: T6, DCAMKL3 (Homo sapiens, UniProt Q9C098)
T6 construct: gene DCLK3
Outline: as §1

remaining binding at 100 µM [1]: 87%
remaining binding at 100 µM [2]: 81%
remaining binding at 100 µM [3]: 100%
remaining binding at 100 µM [4]: 79%
remaining binding at 100 µM [5]: 83%
remaining binding at 100 µM [6]: 65%
remaining binding at 100 µM [7]: 51%
remaining binding at 100 µM [8]: 63%
remaining binding at 100 µM [9]: 100%
remaining binding at 100 µM [10]: 88%
remaining binding at 100 µM [11]: 86%
remaining binding at 100 µM [12]: 88%
remaining binding at 100 µM [13]: 90%
remaining binding at 100 µM [14]: 73%
remaining binding at 100 µM [15]: 62%
remaining binding at 100 µM [16]: 91%
remaining binding at 100 µM [17]: 89%
remaining binding at 100 µM [18]: 81%
remaining binding at 100 µM [19]: 90%
remaining binding at 100 µM [20]: 100%
remaining binding at 100 µM [21]: 100%
remaining binding at 100 µM [22]: 75%
SMILES: C=C(C)[C@H]1CC=C(C)C(=O)C1 [S-carvone]
